Experimental data as given in the NIST ThermoML archive (doi:10.1021/je800150h).

Assay: xn = mol fraction of the nth substance listed
Conditions: 101 kPa, Liquid

CCO [ethanol] + O
Conditions	mass density [kg/m3]	viscosity [mPa·s]
268.1 K, x2 = 0.1	824.9	2.307
268.1 K, x2 = 0.2	838.2	2.805
268.1 K, x2 = 0.3	852.2	3.345
268.1 K, x2 = 0.4	867.7	3.991
268.1 K, x2 = 0.5	886.6	4.829
268.1 K, x2 = 0.6	908.1	5.931
268.1 K, x2 = 0.7	931.6	7.172
268.1 K, x2 = 0.8	951	7.549
268.1 K, x2 = 0.9	977.3	6.025
273.1 K, x2 = 0.1	820.3	2.059
273.1 K, x2 = 0.2	833.7	2.491
273.1 K, x2 = 0.3	847.7	2.938
273.1 K, x2 = 0.4	863.4	3.451
273.1 K, x2 = 0.5	882.1	4.123
273.1 K, x2 = 0.6	903.5	4.978
273.1 K, x2 = 0.7	927.1	5.947
273.1 K, x2 = 0.8	948	6.169
273.1 K, x2 = 0.9	975.6	4.997
278.1 K, x2 = 0.1	815.9	1.837
278.1 K, x2 = 0.2	829	2.21
278.1 K, x2 = 0.3	842.9	2.579
278.1 K, x2 = 0.4	858.8	2.98
278.1 K, x2 = 0.5	877.7	3.518
278.1 K, x2 = 0.6	899.3	4.176
278.1 K, x2 = 0.7	922.7	4.933
278.1 K, x2 = 0.8	945	5.037
278.1 K, x2 = 0.9	973.2	4.089
283.1 K, x2 = 0.1	811.4	1.639
283.1 K, x2 = 0.2	824.7	1.959
283.1 K, x2 = 0.3	838.5	2.26
283.1 K, x2 = 0.4	854.1	2.57
283.1 K, x2 = 0.5	872.8	2.995
283.1 K, x2 = 0.6	894.6	3.499
283.1 K, x2 = 0.7	918.7	4.093
283.1 K, x2 = 0.8	941.4	4.102
283.1 K, x2 = 0.9	970.8	3.34
288.15 K, x2 = 0.1	806.9	1.51
288.15 K, x2 = 0.2	820.1	1.721
288.15 K, x2 = 0.3	833.9	1.98
288.15 K, x2 = 0.4	849.5	2.212
288.15 K, x2 = 0.5	868.5	2.539
288.15 K, x2 = 0.6	889.6	2.922
288.15 K, x2 = 0.7	914.5	3.372
288.15 K, x2 = 0.8	938	3.433
288.15 K, x2 = 0.9	967.3	2.706
293.15 K, x2 = 0.1	802.1	1.355
293.15 K, x2 = 0.2	815.6	1.515
293.15 K, x2 = 0.3	829.4	1.715
293.15 K, x2 = 0.4	845	1.901
293.15 K, x2 = 0.5	863.8	2.153
293.15 K, x2 = 0.6	885.1	2.463
293.15 K, x2 = 0.7	909.9	2.842
293.15 K, x2 = 0.8	934.6	2.841
293.15 K, x2 = 0.9	963.7	2.268
298.15 K, x2 = 0.1	797.7	1.249
298.15 K, x2 = 0.2	811	1.353
298.15 K, x2 = 0.3	825.1	1.513
298.15 K, x2 = 0.4	840.6	1.651
298.15 K, x2 = 0.5	859.2	1.84
298.15 K, x2 = 0.6	880.6	2.089
298.15 K, x2 = 0.7	905.3	2.35
298.15 K, x2 = 0.8	931.3	2.45
298.15 K, x2 = 0.9	960.3	1.92
303.15 K, x2 = 0.1	793	1.156
303.15 K, x2 = 0.2	806	1.218
303.15 K, x2 = 0.3	820.6	1.356
303.15 K, x2 = 0.4	836.1	1.446
303.15 K, x2 = 0.5	854.8	1.598
303.15 K, x2 = 0.6	876.1	1.812
303.15 K, x2 = 0.7	901	2.04
303.15 K, x2 = 0.8	927.6	2.101
303.15 K, x2 = 0.9	956.2	1.656
308.15 K, x2 = 0.1	788.2	1.067
308.15 K, x2 = 0.2	801.4	1.11
308.15 K, x2 = 0.3	816	1.215
308.15 K, x2 = 0.4	831.4	1.296
308.15 K, x2 = 0.5	850.1	1.407
308.15 K, x2 = 0.6	871.4	1.582
308.15 K, x2 = 0.7	896.5	1.78
308.15 K, x2 = 0.8	923.8	1.772
308.15 K, x2 = 0.9	952.7	1.448
313.15 K, x2 = 0.1	783.6	0.92
313.15 K, x2 = 0.2	796.8	1.004
313.15 K, x2 = 0.3	811.1	1.096
313.15 K, x2 = 0.4	826.9	1.149
313.15 K, x2 = 0.5	845.2	1.27
313.15 K, x2 = 0.6	866.8	1.43
313.15 K, x2 = 0.7	892	1.56
313.15 K, x2 = 0.8	919.5	1.557
313.15 K, x2 = 0.9	949	1.271
318.15 K, x2 = 0.1	779	0.86
318.15 K, x2 = 0.2	792.2	0.925
318.15 K, x2 = 0.3	806.6	0.998
318.15 K, x2 = 0.4	822.4	1.039
318.15 K, x2 = 0.5	840.5	1.14
318.15 K, x2 = 0.6	862.1	1.27
318.15 K, x2 = 0.7	887.4	1.371
318.15 K, x2 = 0.8	915.5	1.369
318.15 K, x2 = 0.9	945.5	1.121
323.15 K, x2 = 0.1	774.3	0.76
323.15 K, x2 = 0.2	787.5	0.839
323.15 K, x2 = 0.3	801.9	0.902
323.15 K, x2 = 0.4	817.7	0.932
323.15 K, x2 = 0.5	835.8	1.02
323.15 K, x2 = 0.6	857.3	1.14
323.15 K, x2 = 0.7	883	1.17
323.15 K, x2 = 0.8	911.2	1.202
323.15 K, x2 = 0.9	942	0.975
